Results: US6329523A, “Compounds having a plurality of nitrogenous substitutents” (ISIS Pharmaceuticals, Inc., priority 1999, dated 2001)
Converted amounts (≈) assume the structure as drawn.

How the values were obtained:
Assay type in all cases: cell-based
Streptococcus pyogenes = test: MIC / bacterial growth assay, Streptococcus pyogenes; settings: for inhibition at 100 µM: read-out: inhibition in the S. pyogenes procedure
Description: S. pyogenes [American Type Culture Collection (ATCC) #14289] is used in this bacterial growth assay. To initiate the exponential phase of bacterial growth prior to the assay, a sample of bacteria is grown for 6 hours in Todd Hewitt Broth (Difco 0492-17-6) at 37° C. then re-inoculated into fresh media and grown overnight at 37° C. The bacterial cells are collected by centrifugation for 10 minutes at 3200 rpm, diluted and absorbance read at 595 nm. Bacteria diluted in 233 Todd-Hewitt Broth ([…]) are added to the compound mixtures (75 μL) for a total volume of 150 μL. The assays are performed in 96-well microplates with approximately 1×10^4 colony forming units (CFU) per well. The plates are incubated at 37° C. and growth monitored over a 24 hour period by measuring the optical density at 595 nm using a BioRad model 3550 UV microplate reader. The percentage of growth relative to a well containing no compound is determined. Ampicillin and tetracycline antibiotic controls are concurrently tested in each screening assay.
(§1) Compounds are assayed in duplicate at a single dose. Compounds which show inhibitory activity are re-tested in duplicate at multiple doses to determine minimum inhibitory concentration (MIC).

C. albicans = test: antifungal MIC assay, C. albicans; settings: Candida albicans, 24 h; MIC ASSAYS table; unit inferred
Description: Yeast diluted in 2×YM Broth (75 μL) are added to the compound mixtures (75 μL) for a total volume of 150 μL. The assays are performed in 96-well microplates with approximately 1×10^4 cells per well. The plates are incubated at 25° C. and growth monitored at 48 hours by visual inspection of yeast growth. Amphotericin B anti-fungal control is concurrently tested in each screening assay.
Compounds are assayed in duplicate at multiple doses to determine minimum inhibitory concentration (MIC).

E. coli imp- = test: MIC / bacterial growth assay, E. coli imp-; settings: Escherichia coli
Description: The strain E. coli imp- obtained from Spencer Benson (Sampson, B. A., Misra, R. & Benson, S. A., Genetics, 1989, 122, 491-501, Identification and characterization of a new gene of Escherichia coli K-12 involved in outer membrane permeability) is used in this bacterial growth assay. To initiate the exponential phase of bacterial growth prior to the assay, a sample of bacteria is grown for 6 hours in Mueller Hinton II Broth (BBL 12322) at 37° C. then re-inoculated into fresh media and grown overnight at 37° C. The bacterial cells are collected by centrifugation for 10 minutes at 3200 rpm, diluted and absorbance read at 595 nm. Bacteria diluted in 2×Mueller Hinton II Broth (75 μL) are added to the compound mixtures (75μL) for a total volume of 150 μL. The assays are performed in 96-well microplates with approximately 1×10^4 colony forming units (CFU) per well. The plates are incubated at 37° C. and growth monitored over a 24 hour period by measuring the optical density at 595 nm using a BioRad model 3550 UV microplate reader. The percentage of growth relative to a well containing no compound is determined. Ampicillin and tetracycline antibiotic controls are concurrently tested in each screening assay.
as §1

OCCCN(CCN(Cc1ccccc1)Cc1cccc(CN(Cc2ccccc2)Cc2ccccc2)n1)Cc1ccccc1 [Compound 9, 2-(N,N-dibenzylaminomethylene)-6-{[N1-[benzyl(methyl-1-yl)]-N2-(benzyl)-1-propanol-3-yl]-1,2-diaminoethane}pyridine]
MIC (Streptococcus pyogenes; 24 h, MIC ASSAYS table, first round or parent libraries, unit inferred, read-out: MIC S. pyrogenes): 5 to 25 µM (≈ 2.99 to 15 µg/mL)
MIC (C. albicans): 1 to 5 µM (≈ 0.599 to 2.99 µg/mL)
MIC (E. coli imp-; 24 h, read-out: MIC E. coli): 5 to 25 µM (≈ 2.99 to 15 µg/mL)

N=C(N)NCc1cccc(CN(CCNCCCO)Cc2cccc(C(F)(F)F)c2)n1 [Example 142]
inhibition at 100 µM (Streptococcus pyogenes): 95%

NC(=O)CN(Cc1cccc(C(F)(F)F)c1)Cc1cccc(CN(CCNCCCO)Cc2cccc(C(F)(F)F)c2)n1 [Example 137]
inhibition at 100 µM (Streptococcus pyogenes): 95%
inhibition at 100 µM (E. coli imp-; read-out: inhibition in the E. coli procedure): 87%
